Source: patent US5567704A, “R-enatiomerically pure hydroxylated xanthine compounds to treat baldness” (priority 1995, dated 1996)

Key:
thymocytes = assay: thymocyte costimulator assay (ConA and IL-1α or IL-2); format: cell-based, mice; settings: drug added two hours prior, FIG. 3
Method: A thymocyte costimulator assay is conducted to evaluate the inventive compounds to inhibit activation and proliferation of thymocytes caused by stimulation with Con A and interleukin-1 (IL-1), or […]. Thymuses are obtained from mice (e.g., female Balb/C mice) and the thymuses are removed and dissociated into culture media (e.g., RPMI 1640 without serum supplementation). The dissociated thymus tissue and cell suspension is transferred to centrifuge tubes and allowed to settle, washed with HBSS and resuspended in serum-supplemented culture media (e.g., RPMI 1640 with 10% fetal calf serum). Any contaminating red cells are lysed, and viable cells are resuspended and counted. Thymocytes are plated (e.g., 96-well plates at a density of 2×10^5 cells/well) and a stimulating agent, such as Con A, IL-1 (e.g., IL-1α) or IL-2 is added to the well. The cells are incubated for 4 days at 37° C. On the fourth day, the cells are pulsed with tritiated thymidine and cell proliferation determined. Inventive compounds are added at the time of stimulating agent addition.
CT1501R was added to the cells at the doses indicated two hours prior to activation with ConA and IL-1α or IL-2. Background counts were less than 200 cpm.

stromelysin/PUMP-1 = assay: PUMP-1 activity induced by IL-1; format: cell-based; settings: induced by 100 U/ml of IL-1
Source text: Metalloproteases mediate tissue damage such as glomerular diseases of the kidney, joint destruction in arthritis, and lung destruction in emphysema, and play a role in tumor metastases. Three examples of metalloproteases include a 92 kD type V gelatinase induced by TNF, IL-1 and PDGF plus bFGF, a 72 kD type IV collagenase that is usually constitutive and induced by TNF or IL-1, and a stromelysin/PUMP-1 induced by TNF and IL-1. The inventive compounds can inhibit TNF or IL-1 induction of the 92 kD type V gelatinase inducable metalloprotease. Moreover, CT 1501R reduced PUMP- 1 activity induced by 100 U/ml of IL-1 to 15% of its control levels. […] Accordingly, the inventive compounds prevent induction of certain metalloproteases induced by IL-1 or TNF and are not involved with constitutively produced proteases (e.g., 72 kD type IV collagenase) involved in normal tissue remodeling.

HUVEC = assay: adhesion of U937 cells to activated HUVEC; format: cell-based, human; settings: 250 μM, FIG. 21
Method: Murine peritoneal exudate cell macrophages (PEC) were isolated by perfusion of mouse peritoneum and plated into 96-well trays at 5×10^5 cells per well. Cells were stimulated with 5 μg/ml Salmonella abortus equi -derived endotoxin (LPS; Sigma Chemical Co., L-1887) or […] IL-1α (Genzyme; Cambridge, Mass.) with or without the addition of CT1501R added to the cultures one hour prior to addition of the stimulus. At various times thereafter, supernatants were removed and levels of either TNF-α or IL-1α were assayed using commercial 96-well microtiter immunoassay kits (Genzyme; TNF; Endogen, Boston, Mass.; IL-1α) according to manufacturer's specifications. For the adhesion studies, early passage human umbilical vein endothelial cells (HUVEC) were obtained. from commercial suppliers (Clonetics, San Diego, Calif. or Cell Systems, Seattle, Wash.) and cultured in defined, Hepes buffered, serum free medium (Cell Systems, cat 301-180) supplemented with acidic FGF (Cell Systems cat 401-111). 4000 cells were plated into each well of a 96-well microtiter plate and allowed to incubate for 72 hrs at 37° C. […] After addition of […] Hanks Balanced Salt Solution (HBSS), the microtiter plate was then analyzed on a Millipore Cytofluor fluorescent plate reader (excitation 488 nm; emission 525 nm). […]

IL-1α = assay: mouse plasma IL-1α ELISA after endotoxin; format: in vivo; settings: for Plasma IL-1: LPS + CT-1501R
Method: For ELISA measurements of cytokine levels in plasma, blood was collected by retro-orbital or cardiac puncture of anesthetized mice, immediately centrifuged and the EDTA plasma stored at -70° C. Particulate free plasma was thawed on ice and cytokine levels determined utilizing commercial ELISA assays with normal mouse plasma used to generate standard curves. Murine tumor necrosis factor-α and interleukin-1αkits were purchased from Genzyme (Cambridge, Mass.) and Endogen (Boston, Mass.), respectively. Each data point was an average of two ELISA measurements made from EDTA […] pooled from three mice. The data summarized in Table 3 were compiled from two independent experiments; data from Table 4 and 5 were from single experiments of three mice per data point.
In particular, peak levels observed at 6, 12 and 18 hours post endotoxin were decreased 1.2, 4.3 and 3.2-fold, respectively. Finally, IL-6 measurements were made in a similar manner (Table 6, FIG. 8).

SMILES: C[C@@H](O)CCCCn1c(=O)c2c(ncn2C)n(C)c1=O [CT1501R, (R)-1-(5-hydroxyhexyl)-3,7-dimethylxanthine]
- inhibition of thymocyte proliferation (thymocytes): inhibited thymocyte proliferation in a dose-response manner
- PUMP-1 activity, % of control levels (stromelysin/PUMP-1): 15%
- adhesiveness of activated HUVEC for U937 cells (HUVEC; 1 hour prior to TNF-α, IL-1α or LPS): marked suppression in the relative adhesiveness of the activated HUVEC
- background attachment of U937 cells to HUVEC (HUVEC; non-activated HUVEC): no significant effect on background attachment of U937 cells to HUVEC
- fold decrease of plasma IL-1α (IL-1α; 6 hours post endotoxin): 1.2 fold
- fold decrease of plasma IL-1α (IL-1α; 12 hours post endotoxin): 4.3 fold
- fold decrease of plasma IL-1α (IL-1α; 18 hours post endotoxin): 3.2 fold
- Plasma IL-1 (IL-1α; 0 hours post LPS): 0 pg/mL
- Plasma IL-1 (IL-1α; 0.17 hours post LPS): 0 pg/mL
- Plasma IL-1 (IL-1α; 0.5 hours post LPS): 22 pg/mL
- Plasma IL-1 (IL-1α; 1 hour post LPS): 10.8 pg/mL
- Plasma IL-1 (IL-1α; 3 hours post LPS): 33.2 pg/mL
- Plasma IL-1 (IL-1α; 6 hours post LPS): 133 pg/mL
- Plasma IL-1 (IL-1α; 12 hours post LPS): 32.3 pg/mL
- Plasma IL-1 (IL-1α; 18 hours post LPS): 46.7 pg/mL
- Plasma IL-1 (IL-1α; 24 hours post LPS): 43.5 pg/mL
- Plasma IL-1 (IL-1α; 36 hours post LPS): 18.8 pg/mL
- Plasma IL-1 (IL-1α; 48 hours post LPS): 0 pg/mL
